The values that follow come from patent publication US10172883B2, “Methods and compositions for treating and/or inhibiting toxins using copper-containing compounds” (ALATALAB SOLUTIONS, LLC, priority 2014, dated 2019).

Where only a bound is given, the exact number is not on record here.

The subject of assay [1] is cnidarian sting blistering inflammation. The assay is described as follows: Live jelly sting test, blistering inflammation. The class given is in vivo.
The subject of assay [2] is hemolytic toxins. The settings on record: 10 mM d-lactulose; cited from earlier work.
The test system of assay [3] is box jellyfish venom (Alatina alata) induced hemolysis of human RBCs. Put plainly: Inhibition of box jellyfish venom induced hemolysis of human RBCs. Format: cell-based. The settings on record: for concentration at which active for box jellyfish venom inhibition: 5 units/mL/% RBC box jellyfish venom, 1 hour, 37° C., active at this concentration or greater.
Assay [4] concerns fire ant venom (Solenopsis invicta) induced hemolysis of human red blood cells (RBCs). Format: cell-based.
Assay [5] deals with fire ant venom-induced hemolysis of RBCs. Put plainly: Live time microscopic imaging of fire ant venom-induced hemolysis of RBCs. Particulars: 10 ng/μL fire ant venom, 1 μM copper gluconate, single dose. Format: cell-based, human.
Assay [6] has as its system live Alatina alata tentacles on human RBC agar. Put plainly: RBC agar slide hemolysis by live Alatina alata tentacles. The class given is cell-based. The settings on record: 10 μM in agar slide, 2% fresh human RBC, 37° C., one hour. Here is the method:
2-20 mm sections of fresh live Alatina alata tentacles were placed on top of freshly prepared RBC agar slide (3% NuSieve GTG low melting agarose, 150 mM NaCl with 2% fresh human RBC). Slides were incubated at 37° C. for one hour. Zones of hemolysis are observed in control slide (FIG. 5, left) but not in slides prepared with 10 μM Copper Gluconate (3% NuSieve GTG low melting agarose, 150 mM NaCl, 10 μM Copper Gluconate with 2% fresh human RBC) (FIG. 5, right). A zone of hemolysis indicates lysis of the red blood cells.

As for `O=C(Nc1ccc(Cl)cc1)Nc1ccc(Cl)c(Cl)c1` [TCC, triclocarban], the “resolution of blistering inflammation” value in assay [1] (1% TCC in vanacreme, topical, untreated test lasted up to 72 hr) was “fully resolving the blistering inflammation”. Moreover, the “time to resolve blistering inflammation” value in assay [1] (after application of a live jelly in a sting test) was at most 90 min.

With `OC[C@H]1O[C@@H](O[C@@H]2[C@@H](CO)O[C@](O)(CO)[C@H]2O)[C@H](O)[C@@H](O)[C@H]1O` [d-lactulose], the hemolysis result in assay [2] was “dramatic absence of hemolysis”.

Regarding copper gluconate, in assay [3], the “potency relative to zinc gluconate alone in inhibiting box jellyfish venom” value is on record as “approximately 10 times” and the “concentration at which active for box jellyfish venom inhibition” value is “approximately 30 μM”. For the same molecule, in assay [4], the “concentration at which active for fire ant venom inhibition” value is listed as “approximately 3 μM” and the “efficacy relative to zinc gluconate in the inhibition of ant venom” value is “approximately 10,000 times”. The molecule also gave a slowing of hemolysis in assay [5] of 6 fold. Moreover, in assay [6], the “zones of hemolysis observed” value is given as “not”.

Turning to zinc gluconate, in assay [3], the “concentration at which active for box jellyfish venom inhibition” value is given as “approximately 300 μM”. For the same molecule, in assay [4], the “concentration at which active for fire ant venom inhibition” value is on record as “approximately 25 mM” and the “effect on hemolysis at early time points” value was “potently stimulated hemolysis”.
